Here are results for two molecules from patent US20150031714A1, “METHODS AND COMPOSITIONS FOR PREVENTION OF ALLERGIC REACTION” (Baylor College of Medicine, priority 2013, published 2015).

The experiment concerns MEF/GFP-Stat3α cells. The experiment in a line: High-throughput fluorescence microscopy (HTFM) cytoplasmic-to-nuclear translocation of GFP-Stat3α. The class given is cell-based, murine. The note with it: Mus musculus, 0.5 h; Table 4; MEF/GFP-Stat3α, IL-6 200 ng/ml and IL-6sR 250 ng/ml 30 min; read-out: HTM IC50. How it is done: Coverslips were examined by confocal fluorescent microscopy using filters to detect GFP (column one), DAPI (column two) or both (merge; column three). In panel B, MEF-GFP-Stat3 cells were grown in 96-well plates with optical glass bottoms and pretreated with the indicated compound at the indicated concentrations in quadruplicate for 1 hour then stimulated with IL-6 (200 ng/ml) and IL-6sR (250 ng/ml) for 30 minutes. Cells were fixed and the plates were examined by high-throughput microscopy to determine the fluorescence intensity in the nucleus (FLIN) and the % ΔFLINMax was calculated as described in Example 1. Data shown are mean±SD and are representative of 2 or more studies. Best-fit curves were generated based on 4 Parameter Logistic Model/Dose Response One Site/XLfit 4.2, IDBS and were used to calculate IC50 (Table 1).
Confocal and high-throughput fluorescence microscopy. Confocal and highthroughput fluorescence microscopy (HTFM) of MEF/GFP-Stat3α cells were performed as described (Huang et al., 2007). Briefly, for confocal fluorescence microscopy, cells were grown in 6-well plates containing a cover slip. For HTFM, cells were seeded into 96-well CC3 plates at a density of 5,000 cells/well using an automated plating system. Cells were cultured under standard conditions until 85-90% confluent. Cells were pretreated with compound for 1 hour at 37° C. then stimulated with IL-6 (200 ng/ml) and IL-6sR (250 ng/ml) for 30 minutes. […] Plates were analyzed by automated HTFM using the Cell Lab IC Image Cytometer (IC100) platform and CytoshopVersion 2.1 analysis software (Beckman Coulter). Nuclear translocation is quantified by using the fraction localized in the nucleus (FLIN) measurement (Sharp et al., 2006). […]
EXP IIB. High throughput fluorescence microscopy (HTFM), cytoplasm-to-nucleus translocation inhibition assays. […] Plates are analyzed by automated HTFM using the Cell Lab IC Image Cytometer (IC100) platform and CytoshopVersion 2.1 analysis software (Beckman Coulter). […]

For `O=C(O)c1ccc(C=CC(=O)c2ccc3c(c2)OCCO3)cc1` [Cpd3, 4-[3-(2,3-dihydro-1,4-benzodioxin-6-yl)-3-oxo-1-propen-1-yl]benzoic acid], the IC50 amounted to 131 µM.

With `CCOc1cc(C=C2C(=O)c3ccccc3C2=O)cc(Cl)c1OCc1cccc(C(=O)O)c1` [Cpd3-2, 3-({2-chloro-4-[(1,3-dioxo-1,3-dihydro-2H-inden-2-ylidene)methyl]-6-ethoxyphenoxy}methyl)benzoic acid], the concentration for half-maximal inhibition (IC50) is 150 µM.

What is called IC50 is the midpoint of a concentration-inhibition curve.
